Assay results from PubChem BioAssay (NCI).
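Method: 48-hour compound exposure of cells in 96-well plates, five concentrations, linear interpolation of endpoints. At the GI50, growth is halved. At the TGI there is no net growth.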

Tests used:
Assay in all cases: growth of human tumour cells (NCI), 48 h
[1] = tested on: NCI/ADR-RES ovarian
[2] = tested on: NCI-H226 lung
[3] = tested on: M14 melanoma
[4] = tested on: SF-295 CNS
[5] = tested on: OVCAR-8 ovarian
[6] = tested on: SK-MEL-28 melanoma
[7] = tested on: DU-145 prostate
[8] = tested on: BT-549 breast
[9] = tested on: SF-268 CNS
[10] = tested on: OVCAR-5 ovarian
[11] = tested on: U251 CNS
[12] = tested on: HCT-116 colon
[13] = tested on: IGROV1 ovarian
[14] = tested on: RPMI-8226 leukemia
[15] = tested on: UACC-257 melanoma
[16] = tested on: NCI-H522 lung
[17] = tested on: MCF7 breast
[18] = tested on: SF-539 CNS
[19] = tested on: HL-60(TB) leukemia
[20] = tested on: SNB-75 CNS
[21] = tested on: CCRF-CEM leukemia
[22] = tested on: LOX IMVI melanoma
[23] = tested on: MALME-3M melanoma
[24] = tested on: HS 578T breast
[25] = tested on: HT29 colon
[26] = tested on: OVCAR-3 ovarian
[27] = tested on: NCI-H23 lung
[28] = tested on: RXF 393 renal
[29] = tested on: T-47D breast
[30] = tested on: SK-OV-3 ovarian
[31] = tested on: HCT-15 colon
[32] = tested on: UO-31 renal
[33] = tested on: SN12C renal
[34] = tested on: COLO 205 colon
[35] = tested on: A498 renal
[36] = tested on: SW-620 colon
[37] = tested on: HOP-62 NSCLC
[38] = tested on: KM12 colon
[39] = tested on: EKVX NSCLC
[40] = tested on: UACC-62 melanoma
[41] = tested on: SNB-19 CNS
[42] = tested on: SK-MEL-2 melanoma
[43] = tested on: NCI-H460 lung
[44] = tested on: HCC-2998 colon
[45] = tested on: MDA-MB-435
[46] = tested on: HOP-92 NSCLC
[47] = tested on: MOLT-4 leukemia
[48] = tested on: SR leukemia
[49] = tested on: TK-10 renal
[50] = tested on: MDA-MB-231 breast
[51] = tested on: OVCAR-4 ovarian
[52] = tested on: K-562 leukemia
[53] = tested on: 786-0 renal
[54] = tested on: A549 NSCLC
[55] = tested on: PC-3 prostate
[56] = tested on: ACHN renal
[57] = tested on: SK-MEL-5 melanoma
[58] = tested on: CAKI-1 renal

O=C(/C=C/c1ccc(Cl)cc1)c1ccc(Nc2nc(Nc3ccc(F)cc3)nc(Nc3ccc(F)cc3)n2)cc1
GI50 [1]: 43.9 µM
TGI [1]: > 100 µM
GI50 [2]: 24.5 µM
TGI [2]: 53.8 µM
GI50 [3]: 20.7 µM
TGI [3]: 42 µM
GI50 [4]: 22.6 µM
TGI [4]: 58.5 µM
GI50 [5]: 74.4 µM
TGI [5]: > 100 µM
GI50 [6]: 24.6 µM
TGI [6]: 61.7 µM
GI50 [7]: > 100 µM
TGI [7]: > 100 µM
GI50 [8]: 19 µM
TGI [8]: 36.9 µM
GI50 [9]: 56.1 µM
TGI [9]: > 100 µM
GI50 [10]: > 100 µM
TGI [10]: > 100 µM
GI50 [11]: 19.8 µM
TGI [11]: 41.6 µM
GI50 [12]: 12.2 µM
TGI [12]: 25.5 µM
GI50 [13]: 13.7 µM
TGI [13]: 30.9 µM
GI50 [14]: 4.99 µM
TGI [14]: 26.3 µM
GI50 [15]: > 100 µM
TGI [15]: > 100 µM
GI50 [16]: 35.6 µM
TGI [16]: > 100 µM
GI50 [17]: 9.45 µM
TGI [17]: > 100 µM
GI50 [18]: 24 µM
TGI [18]: 51.9 µM
GI50 [19]: 39 µM
TGI [19]: > 100 µM
GI50 [20]: 67.8 µM
TGI [20]: > 100 µM
GI50 [21]: 31.9 µM
TGI [21]: > 100 µM
GI50 [22]: 27.4 µM
TGI [22]: 70.2 µM
GI50 [23]: > 100 µM
TGI [23]: > 100 µM
GI50 [24]: 52.3 µM
TGI [24]: > 100 µM
GI50 [25]: 35.1 µM
TGI [25]: > 100 µM
GI50 [26]: 32.2 µM
TGI [26]: 89.8 µM
GI50 [27]: 41 µM
TGI [27]: > 100 µM
GI50 [28]: 21.2 µM
TGI [28]: 46.1 µM
GI50 [29]: 19.2 µM
TGI [29]: > 100 µM
GI50 [30]: 43.7 µM
TGI [30]: > 100 µM
GI50 [31]: 53.7 µM
TGI [31]: > 100 µM
GI50 [32]: 19.4 µM
TGI [32]: > 100 µM
GI50 [33]: > 100 µM
TGI [33]: > 100 µM
GI50 [34]: 16.7 µM
TGI [34]: 45.4 µM
GI50 [35]: 34.6 µM
TGI [35]: 98.5 µM
GI50 [36]: 29.2 µM
TGI [36]: 76.5 µM
GI50 [37]: > 100 µM
TGI [37]: > 100 µM
GI50 [38]: 25.7 µM
TGI [38]: > 100 µM
GI50 [39]: 95.7 µM
TGI [39]: > 100 µM
GI50 [40]: > 100 µM
TGI [40]: > 100 µM
GI50 [41]: 94.1 µM
TGI [41]: > 100 µM
GI50 [42]: 40.8 µM
TGI [42]: > 100 µM
GI50 [43]: 38.9 µM
TGI [43]: > 100 µM
GI50 [44]: 17.7 µM
TGI [44]: 41.2 µM
GI50 [45]: 23 µM
TGI [45]: 50 µM
GI50 [46]: 26.6 µM
TGI [46]: > 100 µM
GI50 [47]: 24.5 µM
TGI [47]: 98.7 µM
GI50 [48]: 22.3 µM
TGI [48]: 74.3 µM
GI50 [49]: > 100 µM
TGI [49]: > 100 µM
GI50 [50]: > 100 µM
TGI [50]: > 100 µM
GI50 [51]: 65.7 µM
TGI [51]: > 100 µM
GI50 [52]: 53.1 µM
TGI [52]: > 100 µM
GI50 [53]: 23.1 µM
TGI [53]: 56.3 µM
GI50 [54]: 49.9 µM
TGI [54]: > 100 µM
GI50 [55]: 41.1 µM
TGI [55]: > 100 µM
GI50 [56]: 72 µM
TGI [56]: > 100 µM
GI50 [57]: 46.9 µM
TGI [57]: > 100 µM
GI50 [58]: 80.4 µM
TGI [58]: > 100 µM
